Patent publication US20220370416A1, “COMPOUNDS AND METHODS FOR TARGETED DEGRADATION OF KRAS” (Arvinas Operations, Inc., priority 2020, published 2022)

Biological target: T1, KRAS^G13D (Homo sapiens, UniProt P01116, G13D)
T1 construct: endogenous in cells; host or cells: HCT116
Test: KRAS degradation by immunoblot in HCT 116 cells (specificity)
Assay type: cell-based
Conditions: up to 10 μM
Text: MRTX is known to be selective for mutant KRAS^G12C over other KRAS mutants (Hallin et al. 2020). To explore the specificity of LC-2, KRAS degradation was examined in HCT 116 cells, which harbor a heterozygous KRAS^G13D mutation.
NCI-H2030 (CRL-5914), MIA PaCa-2 (CRL-1420), NCI-H23 (CRL-5800), NCI-H358 (CRL-5807), and HCT-116 (CCL-247) cells were obtained from ATCC, expanded immediately, and frozen down. Vials were thawed and used within 20 passages. SW1573 cells were a gift from Arvinas and were handled in the same manner. […]
Cell lysates were clarified at 21000×g for 15 mins at 4° C. Protein levels were quantified using a 50:1 mixture of bicinchoninic acid solution (Millipore Sigma; cat. no. B9643) and 4% (w/v) copper(II) sulfate solution (Millipore Sigma; cat. no. C2284) incubated at 37° C. for 30 mins. Absorbance values at 560 nm were read on an EnVision 2101 Multilabel Reader (PerkinElmer). […]
Band intensities were quantified using BioRad's Image Lab Software. Total KRAS levels were examined by quantifying levels of both conjugated KRAS^G12C and unbound KRAS (wt or mutant) using an analysis box that spanned the two bands. This same sized box was used to quantify unbound KRAS in DMSO treated samples to account for background, except for LC-2 Epimer in FIGS. 6A and 6B. […]

T1 sequence (P01116 1-188 isoform P01116-2 G13D): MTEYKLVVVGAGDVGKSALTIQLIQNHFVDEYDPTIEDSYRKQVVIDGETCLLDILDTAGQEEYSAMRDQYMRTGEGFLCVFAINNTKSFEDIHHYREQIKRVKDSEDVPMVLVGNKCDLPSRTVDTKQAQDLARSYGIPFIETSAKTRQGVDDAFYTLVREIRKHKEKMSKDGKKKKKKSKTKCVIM

C=C(F)C(=O)N1CCN(c2nc(OC[C@@H]3CCCN3CCCOCCC(=O)N[C@H](C(=O)N3C[C@H](O)C[C@H]3C(=O)NCc3ccc(-c4scnc4C)cc3)C(C)(C)C)nc3c2CCN(c2cccc4cccc(Cl)c24)C3)C[C@@H]1CC#N [LC-2, (2S,4R)-1-((S)-2-(3-(3-((S)-2-(((7-(8-chloronaphthalen-1-yl)-4-((S)-3-(cyanomethyl)-4-(2-fluoroacryloyl)piperazin-1-yl)-5,6,7,8-tetrahydropyrido[3,4-d]pyrimidin-2-yl)oxy)methyl)pyrrolidin-1-yl)propoxy)propanamido)-3,3-dimethylbutanoyl)-4-hydroxy-N-(4-(4-methylthiazol-5-yl)benzyl)pyrrolidine-2-carboxamide]
engagement or degradation of KRAS^G13D: No engagement or degradation
